Calls of active or inactive are those of the source. No stated cut-off is given here; in the data, active = IC50 of 10 µM or less and inactive = more.
Tests used:
[1] = molecular target: Neuropeptides B/W receptor type 1 (Homo sapiens, UniProt P48145); assay: human NPBW1 receptor blockade, IC50 – cell-based, fluorescence, dose response, set 5, late-stage follow-up (AID 588566); format: functional
[2] = molecular target: Melanin-concentrating hormone receptor 1 (Homo sapiens, UniProt Q99705); assay: Late-stage fluorescence-based counterscreen for antagonists of the G-protein coupled receptor 7 (GPR7): cell-based dose response assay to identify antagonists of the melanin-concentrating hormone receptor 1 (MCHR1) Set 5.; format: functional
Chain of Melanin-concentrating hormone receptor 1 (Q99705 whole entry): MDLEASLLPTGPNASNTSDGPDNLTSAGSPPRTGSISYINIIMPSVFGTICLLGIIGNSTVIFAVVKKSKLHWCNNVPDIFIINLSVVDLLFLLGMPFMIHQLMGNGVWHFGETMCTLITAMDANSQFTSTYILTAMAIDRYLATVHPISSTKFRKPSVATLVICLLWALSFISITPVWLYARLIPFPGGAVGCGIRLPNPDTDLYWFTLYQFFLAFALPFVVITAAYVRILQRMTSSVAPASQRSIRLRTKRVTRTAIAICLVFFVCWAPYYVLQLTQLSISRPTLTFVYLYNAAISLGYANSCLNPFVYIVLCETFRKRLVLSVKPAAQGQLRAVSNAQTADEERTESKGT

Chain of Neuropeptides B/W receptor type 1 (P48145 whole entry): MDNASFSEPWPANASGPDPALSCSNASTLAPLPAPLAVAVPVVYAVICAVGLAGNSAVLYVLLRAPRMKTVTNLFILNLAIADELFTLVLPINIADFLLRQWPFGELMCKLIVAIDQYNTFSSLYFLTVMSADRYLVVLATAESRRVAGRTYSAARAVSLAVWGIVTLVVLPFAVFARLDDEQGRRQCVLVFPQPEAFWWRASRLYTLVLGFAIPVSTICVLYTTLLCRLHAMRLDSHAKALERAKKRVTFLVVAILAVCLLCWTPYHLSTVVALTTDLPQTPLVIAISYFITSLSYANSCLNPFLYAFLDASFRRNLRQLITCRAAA

- IC50 [1]: 18.3 µM (inactive)
- IC50 [2]: > 20 µM (inactive)
Compound: CCOc1ccc(Oc2c(Br)nn(Cc3cccc4ccccc34)c(=O)c2Cl)cc1

Source: ChEMBL document CHEMBL1201862, “PubChem BioAssay data set” (2004)
